Earlier results, collected in PMC8435724, “A Single L/D-Substitution at Q4 of the mInsA2-10 Epitope Prevents Type 1 Diabetes in Humanized NOD Mice” (Frontiers in Immunology, 2021).

Legend:
[1] = tested on: T cells of T1D patients
Source text: Thus, human InsA2-10 is likely to be an immunogenic target for diabetic patients.

[2] = tested on: insulin B15-23-reactive CD8^+ T cell clone G9C8; conditions: cytotoxicity and IFN-γ production assays

| Substance | presence of specific T cell responses (in words) [1] | antagonist activity on clone G9C8 (in words) [2] |
| --- | --- | --- |
| GIVEQCCTSI [InsA1-10, human proinsulin (PPI) 90-99 or InsA1-10 (…)] | presence of specific T cell responses | – |
| R8L: APL of insulin B15-23 (LYLVCGERG) substituted at position 8 (LYLVCGELG) | – | antagonist activity |
| G6H: APL of insulin B15-23 (LYLVCGERG) substituted at position 6 (LYLVCHERG) | – | antagonist activity |
